According to patent US5962275A, “Method for the enzymatic galactosylation of monosaccharides and oligosaccharides” (Hoechst Aktiengesellschaft, priority 1995, dated 1999):
Entries after “also recorded” stand apart in the source; their conditions may differ. Read-outs that look alike come from different tables or passages of the source. Blank lines part the entries; values can stand above or below the compound they belong to.

How the values were obtained:
Assay type in all cases: biochemical
UDP-glucose 4'-epimerase [1] = target: T1, UDP-glucose 4'-epimerase (Saccharomyces cerevisiae, UniProt P04397); test: Stability (rel. activity) of the epimerase in the presence of various donors and acceptors of GalT; conditions: for inactivation of the epimerase (in words): donors and acceptors of GalT, acceptors in the presence of UMP
T1 sequence (P04397 whole entry): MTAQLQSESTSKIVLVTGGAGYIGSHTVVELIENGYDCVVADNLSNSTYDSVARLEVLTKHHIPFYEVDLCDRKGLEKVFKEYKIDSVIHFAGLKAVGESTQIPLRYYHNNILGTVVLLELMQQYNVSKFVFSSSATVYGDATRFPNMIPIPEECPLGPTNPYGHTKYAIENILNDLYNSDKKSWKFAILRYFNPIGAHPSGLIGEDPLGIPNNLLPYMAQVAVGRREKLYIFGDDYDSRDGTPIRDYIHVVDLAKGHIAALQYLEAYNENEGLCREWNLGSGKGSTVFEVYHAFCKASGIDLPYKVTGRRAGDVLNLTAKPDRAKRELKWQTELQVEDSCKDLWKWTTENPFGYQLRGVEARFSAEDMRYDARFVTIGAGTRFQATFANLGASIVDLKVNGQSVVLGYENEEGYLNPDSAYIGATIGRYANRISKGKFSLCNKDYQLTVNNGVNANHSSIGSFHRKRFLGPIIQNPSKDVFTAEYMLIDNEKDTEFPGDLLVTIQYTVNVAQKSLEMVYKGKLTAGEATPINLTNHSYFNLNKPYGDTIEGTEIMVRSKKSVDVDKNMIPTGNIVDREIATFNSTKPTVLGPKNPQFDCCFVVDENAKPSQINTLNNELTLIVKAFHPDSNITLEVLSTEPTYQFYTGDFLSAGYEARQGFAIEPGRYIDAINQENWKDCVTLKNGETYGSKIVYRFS
Protocol: 893 μl of 100 mM glycine buffer, pH 8.8
In order to examine the thesis that the inactivation of the epimerase can occur in association with many applications, the stability of the epimerase was tested in the presence of various donors and acceptors of GalT.
P: 200 mM HepesNaOH, pH 7.2, 1 mM DTT, 1 mg/ml BSA, 25 mM KCl containing
R: Activity following reactivation of the epimerase with
dTDP6-deoxy-D-xylo-4-hexulose (c = 0.1 mM)

UDP-glucose 4'-epimerase [2] = target: T1, UDP-glucose 4'-epimerase; test: Reactivation of the inactivated epimerase with activator; conditions: for time after which renewed inactivation of the epimerase is observed: activator 0.1 mM, galactose and UMP still present in the mixture
Protocol: Both dUDP-6-deoxy-D-xylo-4-hexulose and dTDP-6-deoxy-D-xylo-4-hexulose, and also 6-deoxyglucosone, galactosone, allosone and glucosone, were used for reactivating the epimerase.
2. Inactivation of the epimerase
1 mg/ml bovine serum albumin (BSA)
3. Activation of the epimerase
160 μl of inactivated epimerase
40 μl of activator (different concentrations)

UDP-glucose 4'-epimerase [3] = target: T1, UDP-glucose 4'-epimerase; test: Inactivation of the epimerase by sugar in the presence of UMP; conditions: 500 mM sucrose, 0.1 mM UMP, Hepes pH 7.2, 30° C., 8 hours
Protocol: A: 200 mM Hepes pH 7.2, 1 mM DTT, 1 mg/ml BSA B: 200 mM Hepes pH 7.2, 1 mM DTT, 1 mg/ml BSA, 500 mM sucrose A. Buffer solution A B. Buffer solution A, 0.1 mM UMP C. Buffer solution B D. […] Incubation temperature: 30° C. Activity test: (Fukusawa et al., J. Biol. Chem. 255, 2705-2707 (1980)) | 893 μl of 100 mM glycine buffer, pH 8.8 | 20 μl of 5 mM UDP-Gal | 20 μl of 50 mM NAD […] |33.3 μl of epimerase Temperature: 25° C. Measurement at 340 nm

[4] = 2 h, pH 7.2, read-out: Rel. activity of the epimerase, incubation time 2h
[5] = inactivated epimerase plus activator, different concentrations
[6] = 2 h, acceptor 50 mM, buffer P pH 7.2 containing 0.1 mM UMP, read-out: Rel. activity of the epimerase, incubation time 2h
[7] = acceptor 50 mM, buffer P pH 7.2 containing 0.1 mM UMP

SMILES: OC[C@H]1OC(O)[C@H](O)[C@@H](O)[C@@H]1O (stereo partly shown) [Glc, glucose]
activity at 50000 µM (UDP-glucose 4'-epimerase [1]; [4]): 15.8%
inactivation of the epimerase (in words) (UDP-glucose 4'-epimerase [1]): inactivated

SMILES: CC(=O)N[C@H]1C(O)O[C@H](CO)[C@@H](O)[C@@H]1O (stereo partly shown) [GlcNAc, N-acetylglucosamine]
activity at 50000 µM (UDP-glucose 4'-epimerase [1]; [6]): 93.6%
Rel. activity of the epimerase, incubation time 7h (UDP-glucose 4'-epimerase [1]; [7]): 97.5

SMILES: OC[C@H]1SC(O)[C@H](O)[C@@H](O)[C@@H]1O (stereo partly drawn) [Thioglc, 5-thio-D-glucose]
activity at 50000 µM (UDP-glucose 4'-epimerase [1]; [6]): 87.9%
Rel. activity of the epimerase, incubation time 7h (UDP-glucose 4'-epimerase [1]; [7]): 34.3
inactivation of the epimerase (in words) (UDP-glucose 4'-epimerase [1]): inactivated

SMILES: OC[C@H]1OC(O)[C@H](O)[C@@H](O)[C@H]1O (stereo partly shown) [galactose]
measured activity of the epimerase after inactivation (UDP-glucose 4'-epimerase [2]; 50 mM galactose, 0.1 mM UMP, 0.25 mg/ml epimerase, 2 h at 30° C.): 3%

SMILES: OC[C@H]1OC(O)C[C@@H](O)[C@@H]1O (stereo partly drawn) [2-Deoxyglc, 2-deoxy-D-glucose]
activity at 50000 µM (UDP-glucose 4'-epimerase [1]; [4]): 20.7%
inactivation of the epimerase (in words) (UDP-glucose 4'-epimerase [1]): inactivated

Now from value to compound, other results behind:

reactivation of the epimerase (in words) (UDP-glucose 4'-epimerase [2]): can be used to reactivate
time after which renewed inactivation of the epimerase is observed (UDP-glucose 4'-epimerase [2]): 32 h
activation of the epimerase (in words) (UDP-glucose 4'-epimerase [2]; [5]): rapid and long-lasting activation
SMILES: Cc1cn([C@H]2C[C@H](O)[C@@H](COP(=O)(O)OP(=O)(O)O[C@H]3O[C@H](C)C(=O)[C@H](O)[C@H]3O)O2)c(=O)[nH]c1=O [dTDP-6-deoxy-D-xylo-4-hexulose]

inactivation of the epimerase (in words) (UDP-glucose 4'-epimerase [3]): inactivated
SMILES: OC[C@H]1O[C@@](CO)(O[C@H]2O[C@H](CO)[C@@H](O)[C@H](O)[C@H]2O)[C@@H](O)[C@@H]1O [sucrose]

activity at 50000 µM (UDP-glucose 4'-epimerase [1]; [6]): 86.1%
activity at 50000 µM (UDP-glucose 4'-epimerase [1]; 8 h, acceptor 50 mM, buffer P pH 7.2 containing 0.1 mM UMP, read-out: Rel. activity of the epimerase, incubation time 8h): 29.3%
Rel. activity of the epimerase, incubation time 7h (UDP-glucose 4'-epimerase [1]; [7]): 75.6
inactivation of the epimerase (in words) (UDP-glucose 4'-epimerase [1]): inactivated
SMILES: CCCCCCCCOC1O[C@H](CO)[C@@H](O)[C@H](O)[C@H]1O (stereo partly shown) [n-Octylglucopyranoside, n-octylglucopyranoside]

time after which renewed inactivation of the epimerase is observed (UDP-glucose 4'-epimerase [2]): 32 h
activation of the epimerase (in words) (UDP-glucose 4'-epimerase [2]; [5]): rapid and long-lasting activation
SMILES: C[C@H]1O[C@H](OP(=O)(O)OP(=O)(O)OC[C@H]2O[C@@H](n3ccc(=O)[nH]c3=O)C[C@@H]2O)[C@H](O)[C@@H](O)C1=O [dUDP-6-deoxy-D-xylo-4-hexulose]
reactivation of the epimerase (in words) (UDP-glucose 4'-epimerase [2]): can be used to reactivate; also recorded: successfully employed to reactivate the epimerase
activation of the epimerase (in words) (UDP-glucose 4'-epimerase [2]; 1 mM activator, activity monitored over […]): rapid activation of the epimerase, with the activation being stable over the period of observation
